Source: the NIST ThermoML archive (doi:10.1016/j.jct.2012.12.022)
Values joined by “and” are separate entries in the source; they are usually repeats but may differ in a detail not shown here. Equal values may be shown once. ± gives the expanded uncertainty stated by the source.

Assay: mn = molality of the nth substance listed, in mol/kg
Conditions: 101 kPa, Liquid; for speed of sound: Sing-around technique in a fixed-path interferometer; for mass density: Vibrating tube method

O=C([O-])CC(O)(CC(=O)[O-])C(=O)[O-].[Na+].[Na+].[Na+] [trisodium citrate] + O
Conditions	mass density, 288.15 K [kg/m3]	mass density, 293.15 K [kg/m3]	mass density, 298.15 K [kg/m3]	mass density, 303.15 K [kg/m3]	speed of sound, 288.15 K [m/s]	speed of sound, 293.15 K [m/s]	speed of sound, 298.15 K [m/s]	speed of sound, 303.15 K [m/s]
m1 = 0.00247	999.597 ± 0.2	998.701 ± 0.2	997.537 ± 0.2	996.131 ± 0.2	1467.4 ± 2.1	1483 ± 2.1	1497.2 ± 2.1	1509.6 ± 2.1
m1 = 0.04871	1008.4 ± 0.2	1007.39 ± 0.2	1006.09 ± 0.2	1004.6 ± 0.2	1479.1 ± 2.1	1493.7 ± 2.1	1507.2 ± 2.1	1519.6 ± 2.1
m1 = 0.09738	1017.15 ± 0.2	1016.08 ± 0.2	1014.65 ± 0.2	1013.09 ± 0.2	1488.8 ± 2.1	1503.5 ± 2.1	1516.8 ± 2.1	1529 ± 2.1
m1 = 0.201	1034.85 ± 0.2	1033.45 ± 0.2	1031.8 ± 0.2	1030.15 ± 0.2	1509.2 ± 2.1	1523.4 ± 2.1	1536.7 ± 2.1	1547.8 ± 2.1
m1 = 0.2898	1049.56 ± 0.21	1047.86 ± 0.21	1046.01 ± 0.21	1044.34 ± 0.21	1526.1 ± 2.1	1540 ± 2.1	1552.4 ± 2.1	1562.6 ± 2.1
m1 = 0.3899	1065.78 ± 0.21	1063.45 ± 0.21	1061.6 ± 0.21	1059.7 ± 0.21	1545.2 ± 2.1	1558.9 ± 2.1	1570.2 ± 2.1	1579 ± 2.1
m1 = 0.4966	1082.16 ± 0.21	1079.75 ± 0.21	1077.6 ± 0.21	1075.59 ± 0.21	1565.2 ± 2.1	1578 ± 2.1	1587.1 ± 2.1	1596.3 ± 2.1
m1 = 0.6007	1097.37 ± 0.21	1094.95 ± 0.21	1092.45 ± 0.21	1090.27 ± 0.21	1583.7 ± 2.1	1595 ± 2.1	1603.5 ± 2.1	1612.2 ± 2.1
m1 = 0.7036	1111.65 ± 0.22	1109.41 ± 0.22	1106.71 ± 0.22	1104.4 ± 0.22	1601 ± 2.1	1611.8 ± 2.1	1617.6 ± 2.1	1626.5 ± 2.1
m1 = 0.7698	1120.84 ± 0.22	1118.51 ± 0.22	1115.58 ± 0.22	1113.15 ± 0.22	1612.3 ± 2.1	1621.3 ± 2.1	1628.1 ± 2.1	1635.6 ± 2.1
m1 = 0.9013	1138.29 ± 0.22	1135.53 ± 0.22	1132.31 ± 0.22	1129.69 ± 0.22	1636.1 ± 2.1	1643.5 ± 2.1	1646 ± 2.1	1652.1 ± 2.1

CC(=O)NCC(=O)O [N-acetylglycine] + O
Conditions	mass density, 288.15 K	mass density, 293.15 K	mass density, 298.15 K	mass density, 303.15 K	speed of sound, 288.15 K	speed of sound, 293.15 K	speed of sound, 298.15 K [m/s]	speed of sound, 303.15 K
m1 = 0.085	1001.93 ± 0.23 kg/m3	1000.99 ± 0.23 kg/m3	999.799 ± 0.23 kg/m3	998.366 ± 0.23 kg/m3	1470.3 ± 2.2 m/s	1485.9 ± 2.2 m/s	1499.7 ± 2.2	1511.7 ± 2.2 m/s
m1 = 0.18	1005.02 ± 0.23 kg/m3 and 1004.89 ± 0.23 kg/m3	1004.02 ± 0.23 kg/m3 and 1003.9 ± 0.23 kg/m3	1002.78 ± 0.23 kg/m3 and 1002.66 ± 0.23 kg/m3	1001.3 ± 0.23 kg/m3 and 1001.18 ± 0.23 kg/m3	1475.4 ± 2.2 m/s and 1470.6 ± 5 m/s	1490.5 ± 2.2 m/s and 1490.7 ± 2.2 m/s	1504 ± 2.2	1515.6 ± 2.2 m/s and 1515.5 ± 2.2 m/s

O=C([O-])CC(O)(CC(=O)[O-])C(=O)[O-].[K+].[K+].[K+] [potassium citrate] + O
Conditions	mass density, 288.15 K [kg/m3]	mass density, 293.15 K [kg/m3]	mass density, 298.15 K [kg/m3]	mass density, 303.15 K [kg/m3]	speed of sound, 288.15 K [m/s]	speed of sound, 293.15 K [m/s]	speed of sound, 298.15 K [m/s]	speed of sound, 303.15 K [m/s]
m1 = 0.00361	999.9 ± 0.2	998.989 ± 0.2	997.839 ± 0.2	996.386 ± 0.2	1467.4 ± 2.1	1483.1 ± 2.1	1497.3 ± 2.1	1509.7 ± 2.1
m1 = 0.05427	1010.36 ± 0.2	1009.25 ± 0.2	1007.98 ± 0.2	1006.52 ± 0.2	1478.4 ± 2.1	1493.8 ± 2.1	1507.6 ± 2.1	1519.7 ± 2.1
m1 = 0.09681	1018.59 ± 0.2	1017.45 ± 0.2	1016.12 ± 0.2	1014.61 ± 0.2	1487.2 ± 2.1	1502.1 ± 2.1	1515.8 ± 2.1	1527.7 ± 2.1
m1 = 0.2001	1038.27 ± 0.21	1037.36 ± 0.21	1035.59 ± 0.21	1034.01 ± 0.21	1507 ± 2.1	1521.7 ± 2.1	1534.6 ± 2.1	1545.9 ± 2.1
m1 = 0.2914	1055.11 ± 0.21	1053.58 ± 0.21	1051.92 ± 0.21	1050.18 ± 0.21	1524.1 ± 2.1	1537.8 ± 2.1	1550.6 ± 2.1	1561.2 ± 2.1
m1 = 0.3859	1071.84 ± 0.21	1070.62 ± 0.21	1069.02 ± 0.21	1066.43 ± 0.21	1541.9 ± 2.1	1555.4 ± 2.1	1567.7 ± 2.1	1577.7 ± 2.1
m1 = 0.4948	1090.12 ± 0.21	1088.43 ± 0.21	1086.46 ± 0.21	1084.57 ± 0.21	1561.8 ± 2.1	1572.8 ± 2.1	1584.8 ± 2.1	1595.2 ± 2.1
m1 = 0.5799	1104.11 ± 0.21	1102.38 ± 0.21	1100.2 ± 0.21	1098.17 ± 0.21	1576.6 ± 2.1	1588 ± 2.1	1598.8 ± 2.1	1609.1 ± 2.1
m1 = 0.6983	1122.79 ± 0.22	1120.89 ± 0.22	1118.45 ± 0.22	1116.27 ± 0.22	1597.6 ± 2.1	1608.2 ± 2.1	1618.3 ± 2.1	1627.5 ± 2.1
m1 = 0.7576	1131.78 ± 0.22	1129.85 ± 0.22	1127.36 ± 0.22	1125.04 ± 0.22	1607.6 ± 2.1	1618.9 ± 2.1	1627.7 ± 2.1	1637.2 ± 2.1
m1 = 0.8939	1151.83 ± 0.23	1149.58 ± 0.23	1146.96 ± 0.23	1144.2 ± 0.23	1630.8 ± 2.2	1641.3 ± 2.1	1649.4 ± 2.1	1657.5 ± 2.1
